We go through 27 compounds from BindingDB's records for doi:10.1021/acschembio.6b00747 (The University of Kansas, 2017).

The target in one assay is Endoplasmin (Homo sapiens, UniProt P14625). The experiment in a line: Fluorescence Polarization (FP) Assay. The settings on record: pH 7.3. The protocol:
(§1) Assay buffer (25 μL, 20 mM HEPES at pH 7.3, 50 mM KCl, 5 mM MgCl2, 1 mM DTT, 20 mM Na2MoO4, 0.01% NP-40, and 0.5 mg mL−1 BGG) was added to a 96-well plate (black well, black bottom) followed by the desired compound at the indicated final concentrations in DMSO (1% DMSO final concentration). Subsequently, 10 nM recombinant cGrp94/Hsp90α and 6 nM FITC-GDA were added in 50 and 25 μL assay buffer respectively, resulting in a 100 μL final volume. Plates were incubatedfor 5 h at 4 °C on a rocker. […] Percent FITC-GDA bound was determined by assigning the DMSO millipolarization unit (mP) value as the 100% bound value and 0% for FITC-GDA in assay buffer without any protein.
In general terms: In fluorescence polarisation assays a small probe gives low polarisation when free and higher when bound to something large.

Assay [1] concerns the target Heat shock protein HSP 90-alpha (Homo sapiens, UniProt P07900). As to the kind of experiment: Fluorescence Polarization (FP) Assay. The settings on record: pH 7.3. The protocol:
as §1

Sequence of Endoplasmin (P14625 whole entry): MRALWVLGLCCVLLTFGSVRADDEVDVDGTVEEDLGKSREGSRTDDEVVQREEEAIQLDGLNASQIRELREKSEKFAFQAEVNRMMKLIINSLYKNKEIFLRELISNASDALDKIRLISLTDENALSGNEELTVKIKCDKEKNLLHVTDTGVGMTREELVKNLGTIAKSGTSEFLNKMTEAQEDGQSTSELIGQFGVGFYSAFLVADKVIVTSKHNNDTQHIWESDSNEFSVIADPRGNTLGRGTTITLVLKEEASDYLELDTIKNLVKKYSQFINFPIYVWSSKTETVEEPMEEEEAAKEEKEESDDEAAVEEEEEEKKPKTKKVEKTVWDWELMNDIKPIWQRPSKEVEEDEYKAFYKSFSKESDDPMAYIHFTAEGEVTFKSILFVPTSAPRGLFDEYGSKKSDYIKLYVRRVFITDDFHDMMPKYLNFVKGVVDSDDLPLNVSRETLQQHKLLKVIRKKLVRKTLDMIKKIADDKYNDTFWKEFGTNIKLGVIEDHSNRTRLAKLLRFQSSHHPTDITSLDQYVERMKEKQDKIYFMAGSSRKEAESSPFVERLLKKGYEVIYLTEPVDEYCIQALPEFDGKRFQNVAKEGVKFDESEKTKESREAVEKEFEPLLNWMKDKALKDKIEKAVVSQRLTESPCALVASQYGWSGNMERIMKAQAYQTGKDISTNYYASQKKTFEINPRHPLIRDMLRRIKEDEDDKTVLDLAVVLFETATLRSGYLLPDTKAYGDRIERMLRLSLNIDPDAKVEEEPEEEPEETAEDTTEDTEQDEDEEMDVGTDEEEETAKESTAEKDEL

Consider `NC(=O)c1ccc(-n2cccc2Cc2ccccc2)cc1NC1CCC(O)CC1` (stereo not given) [4-(2-benzyl-1H-pyrrol-1-yl)-2-(((1r,4r)-4-hydroxycyclohexyl)amino)benzamide (8a)], for which the Kd (in general, a measure of binding affinity in units of concentration) was 1.13 µM on Endoplasmin and more than 100 µM in assay [1].

For the compound `NC(=O)c1ccc(-n2cccc2Cc2ccccc2Cl)cc1NC1CCC(O)CC1` (stereo not given) [4-(2-(2-chlorobenzyl)-1H-pyrrol-1-yl)-2-(((1r,4r)-4-hydroxycyclohexyl)amino)benzamide (8b)], the results for the Kd (on Endoplasmin; in assay [1]) were 0.83 µM and more than 100 µM, respectively. In the case of `Cc1ccc(-c2cccn2-c2ccc(C(N)=O)c(NC3CCC(O)CC3)c2)cc1` (stereo not given) [2-(((1r,4r)-4-hydroxycyclohexyl)amino)-4-(2-(p-tolyl)-1H-pyrrol-1-yl)benzamide (5d)], the Kd on Endoplasmin is 8.35 µM; in assay [1], more than 100 µM.

As to `NC(=O)c1ccc(-n2cccc2-c2ccccn2)cc1NC1CCC(O)CC1` (stereo not given) [2-(((1r,4r)-4-hydroxycyclohexyl)amino)-4-(2-(pyridin-2-yl)-1H-pyrrol-1-yl)benzamide (5h)], the Kd at Endoplasmin is 14 µM; in assay [1] it was more than 100 µM. The corresponding values for `Cc1ccccc1-c1cccn1-c1ccc(C(N)=O)c(NC2CCC(O)CC2)c1` (stereo not given) [2-(((1r,4r)-4-hydroxycyclohexyl)amino)-4-(2-(o-tolyl)-1H-pyrrol-1-yl)benzamide (5b)] are 9.9 µM and more than 100 µM. `NC(=O)c1ccc(-n2cccc2-c2ccccc2Cl)cc1NC1CCC(O)CC1` (stereo not given) [4-(2-(2-chlorophenyl)-1H-pyrrol-1-yl)-2-(((1r,4r)-4-hydroxycyclohexyl)amino)benzamide (5e)] had a Kd in assay [1] of more than 100 µM. Take `COc1ccccc1Cc1cccn1-c1ccc(C(N)=O)c(NC2CCC(O)CC2)c1` (stereo not given) [2-(((1r,4r)-4-hydroxycyclohexyl)amino)-4-(2-(2-methoxybenzyl)-1H-pyrrol-1-yl)benzamide (8m)]: the Kd on Endoplasmin is 1.15 µM; in assay [1], more than 100 µM.

Take `NC(=O)c1ccc(-n2cccc2-c2ccccc2)cc1NC1CCC(O)CC1` (stereo not given) [2-(((1r,4r)-4-hydroxycyclohexyl)amino)-4-(2-phenyl-1H-pyrrol-1-yl)benzamide (5a)]: the Kd was 9.05 µM on Endoplasmin and more than 100 µM in assay [1].

On to `NC(=O)c1ccc(-n2cccc2Cc2ccccn2)cc1NC1CCC(O)CC1` (stereo not given) [2-(((1r,4r)-4-hydroxycyclohexyl)amino)-4-(2-(pyridin-2-ylmethyl)-1H-pyrrol-1-yl)benzamide (8o)], for which the results for the Kd (on Endoplasmin; in assay [1]) were 14 µM and more than 100 µM, respectively.

Consider `NC(=O)c1ccc(-n2cccc2Cc2ccc(F)cc2)cc1NC1CCC(O)CC1` (stereo not given) [4-(2-(4-fluorobenzyl)-1H-pyrrol-1-yl)-2-(((1r,4r)-4-hydroxycyclohexyl)amino)benzamide (8g)], for which the Kd on Endoplasmin is 8.35 µM; in assay [1], more than 100 µM. The corresponding values for `NC(=O)c1ccc(-n2cccc2Cc2ccccc2Br)cc1NC1CCC(O)CC1` (stereo not given) [4-(2-(2-bromobenzyl)-1H-pyrrol-1-yl)-2-(((1r,4r)-4-hydroxycyclohexyl)amino)benzamide (8h)] are 12.9 µM and more than 100 µM. Consider `NC(=O)c1ccc(-n2cccc2Cc2cccc(O)c2)cc1NC1CCC(O)CC1` (stereo not given) [4-(2-(3-hydroxybenzyl)-1H-pyrrol-1-yl)-2-(((1r,4r)-4-hydroxycyclohexyl)amino)benzamide (8k)], for which the Kd at Endoplasmin was more than 25 µM; in assay [1] it was more than 100 µM. For `NC(=O)c1ccc(-n2cccc2Cc2cccc(F)c2)cc1NC1CCC(O)CC1` (stereo not given) [4-(2-(3-fluorobenzyl)-1H-pyrrol-1-yl)-2-(((1r,4r)-4-hydroxycyclohexyl)amino)benzamide (8f)], the Kd at Endoplasmin was 4.53 µM; in assay [1] it was more than 100 µM. Compound `NC(=O)c1ccc(-n2cccc2Cc2ccc(O)cc2)cc1NC1CCC(O)CC1` (stereo not given) [4-(2-(4-hydroxybenzyl)-1H-pyrrol-1-yl)-2-(((1r,4r)-4-hydroxycyclohexyl)amino)benzamide (8l)] returned a Kd in assay [1] of more than 100 µM. Regarding `Cc1ccccc1Cc1cccn1-c1ccc(C(N)=O)c(NC2CCC(O)CC2)c1` (stereo not given) [2-(((1r,4r)-4-hydroxycyclohexyl)amino)-4-(2-(2-methylbenzyl)-1H-pyrrol-1-yl)benzamide (8i)], the Kd at Endoplasmin is 4.2 µM; in assay [1], more than 100 µM. For `NC(=O)c1ccc(-n2cccc2Cc2ccccc2F)cc1NC1CCC(O)CC1` (stereo not given) [4-(2-(2-fluorobenzyl)-1H-pyrrol-1-yl)-2-(((1r,4r)-4-hydroxycyclohexyl)amino)benzamide (8e)], the Kd was 0.72 µM on Endoplasmin and more than 100 µM in assay [1]. The matching figures for `NC(=O)c1ccc(-n2cccc2Cc2ccncc2)cc1NC1CCC(O)CC1` (stereo not given) [2-(((1r,4r)-4-hydroxycyclohexyl)amino)-4-(2-(pyridin-4-ylmethyl)-1H-pyrrol-1-yl)benzamide (8q)]: 13.2 µM and more than 100 µM.

As for `NC(=O)c1ccc(-n2cccc2-c2ccncc2)cc1NC1CCC(O)CC1` (stereo not given) [2-(((1r,4r)-4-hydroxycyclohexyl)amino)-4-(2-(pyridin-4-yl)-1H-pyrrol-1-yl)benzamide (5j)], the results for the Kd (on Endoplasmin; in assay [1]) were 13.2 µM and more than 100 µM, respectively. The matching figures for `NC(=O)c1ccc(-n2cccc2-c2ccc(Cl)cc2)cc1NC1CCC(O)CC1` (stereo not given) [4-(2-(4-chlorophenyl)-1H-pyrrol-1-yl)-2-(((1r,4r)-4-hydroxycyclohexyl)amino)benzamide (5g)]: 10.6 µM and more than 100 µM.

For `NC(=O)c1ccc(-n2cccc2-c2cccnc2)cc1NC1CCC(O)CC1` (stereo not given) [2-(((1r,4r)-4-hydroxycyclohexyl)amino)-4-(2-(pyridin-3-yl)-1H-pyrrol-1-yl)benzamide (5i)], the Kd at Endoplasmin is 5.5 µM; in assay [1], more than 100 µM. The corresponding values for `NC(=O)c1ccc(-n2cccc2CCc2ccccc2)cc1NC1CCC(O)CC1` (stereo not given) [2-(((1r,4r)-4-hydroxycyclohexyl)amino)-4-(2-phenethyl-1H-pyrrol-1-yl)benzamide (9)] are more than 25 µM and more than 100 µM. The matching figures for `NC(=O)c1ccc(-n2cccc2Cc2cccc(Cl)c2)cc1NC1CCC(O)CC1` (stereo not given) [4-(2-(3-chlorobenzyl)-1H-pyrrol-1-yl)-2-(((1r,4r)-4-hydroxycyclohexyl)amino)benzamide (8c)]: 2.45 µM and more than 100 µM. `NC(=O)c1ccc(-n2cccc2-c2cccc(Cl)c2)cc1NC1CCC(O)CC1` (stereo not given) [4-(2-(3-chlorophenyl)-1H-pyrrol-1-yl)-2-(((1r,4r)-4-hydroxycyclohexyl)amino)benzamide (5f)]: in assay [1], the Kd was more than 100 µM. `NC(=O)c1ccc(-n2cccc2Cc2c(F)cccc2F)cc1N[C@H]1CC[C@H](O)CC1` [4-(2-(2,6-difluorobenzyl)-1H-pyrrol-1-yl)-2-(((1r,4r)-4hydroxycyclohexyl)amino)benzamide (8n)] displayed a Kd at Endoplasmin of more than 25 µM.

In the case of `NC(=O)c1ccc(-n2cccc2Cc2ccc(Cl)cc2)cc1NC1CCC(O)CC1` (stereo not given) [4-(2-(4-chlorobenzyl)-1H-pyrrol-1-yl)-2-(((1r,4r)-4-hydroxycyclohexyl)amino)benzamide (8d)], the Kd at Endoplasmin was more than 25 µM; in assay [1] it was more than 100 µM. The matching figures for `Cc1cccc(-c2cccn2-c2ccc(C(N)=O)c(NC3CCC(O)CC3)c2)c1` (stereo not given) [2-(((1r,4r)-4-hydroxycyclohexyl)amino)-4-(2-(m-tolyl)-1H-pyrrol-1-yl)benzamide (5c)]: 9.43 µM and more than 100 µM. As for `NC(=O)c1ccc(-n2cccc2Cc2cccnc2)cc1NC1CCC(O)CC1` (stereo not given) [2-(((1r,4r)-4-hydroxycyclohexyl)amino)-4-(2-(pyridin-3-ylmethyl)-1H-pyrrol-1-yl)benzamide (8p)], the Kd on Endoplasmin is 5.5 µM; in assay [1], more than 100 µM.
